For this assay, the target named is T1, RORγ (Homo sapiens, UniProt P51449).
T1 construct: expressed in transfected cells; host or cells: 293FT cells (Invitrogen), expression vector pFN26A (Promega)
T1 sequence (P51449 269-508 limits assumed): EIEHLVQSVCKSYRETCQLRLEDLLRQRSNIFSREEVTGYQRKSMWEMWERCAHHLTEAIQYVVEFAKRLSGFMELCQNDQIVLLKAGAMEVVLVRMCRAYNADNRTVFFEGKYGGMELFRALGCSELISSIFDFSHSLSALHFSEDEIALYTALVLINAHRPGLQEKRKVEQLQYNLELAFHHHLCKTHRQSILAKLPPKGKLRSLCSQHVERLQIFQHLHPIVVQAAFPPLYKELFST
Put plainly: RORγ GAL4 reporter gene assay. Type of assay: cell-based. The settings on record: inhibition of RORγ activity, GAL4-RORγ-LBD luciferase reporter in 293FT cells, overnight incubation; read-out: mean pIC50 (converted). The method, then: Example inhibitors 1-166 were tested for their ability to inhibit RORγ activity in a RORγ GAL4 reporter gene assay. The assay procedure and results are described below.
RORγ GAL4 Reporter Gene Assay Description
A GAL4 one-hybrid reporter system employing luciferase readout was established to determine inhibition of RORγ in 293FT cells. The RORγ ligand-binding domain (LBD) was fused to the yeast GAL4 DNA binding domain (DBD) and placed under the control of the human cytomegalovirus (CMV) immediate early promoter, using expression vector pFN26A (Promega) and standard recombinant DNA cloning methods. To serve as a control in the assay, a similar vector was generated in which the GAL4-DBD was fused to Herpes simplex virus protein 16 (VP16), a constitutive transcriptional activator.
To monitor the inhibitory effect of compounds on RORγ, a transcriptional reporter construct was used. The pGL4.35 vector (Promega) contains nine copies of the GAL4 Upstream Activator Sequence (UAS). This sequence drives the transcription of the luciferase reporter gene luc2P in response to binding of a fusion protein containing the GAL4 DNA binding domain, as for example expressed by the GAL4-RORγ-LBD and GAL4-VP16 expression vectors described above. To allow a GAL4 fusion protein to drive the expression of the luciferase reporter, the pGL4.35 expression vector and the appropriate GAL4 fusion protein expression vector were bulk transfected in the 293FT cells using standard transfection techniques.
The day after transfection, cells were plated into 96 well plates, test compound was added and the plates were incubated overnight. Subsequently, the firefly luciferase activity was quantified using luciferase detection reagent and luminescence readout.
Detailed Assay Description
293FT cells (Invitrogen) were transfected with a GAL4 fusion protein expression vector (as described above) and the transcriptional reporter construct (pGL4.35, Promega). 60 μL of TransIT-293 transfection reagent (Mirus Bio) was added drop wise to 1500 μl Opti-MEM I Reduced Serum Medium (Invitrogen) and incubated at room temperature (RT) for 5 to 20 minutes. 1500 μL of this reagent mixture was added to 5 μg of GAL4 fusion protein expression vector and 5 μg of the transcriptional reporter construct, and incubated at RT for 20 minutes.
To harvest 293FT cells from a T75 flask, first the culture medium was taken off the cells. Subsequently, the cells were washed with Phosphate Buffered Saline (PBS) (Lonza), after which the PBS was removed. To dissociate the cells, 1 ml of TrypLE Express (Invitrogen) was added to the flask, followed by incubation at RT until the cells visually started to detach. Cells were collected in 5 mL of assay medium (DMEM culture medium (Lonza), 10% dialyzed FBS (Invitrogen) and Pen/Strep (Lonza)) to achieve a single cell suspension. 10×10^6 cells were spun down and re-suspended in 10 mL of assay medium. Subsequently, the cell suspension was added to the transfection mix tube, and then transferred as a whole to a T75 flask (Greiner), followed by overnight (16-24 hours) incubation at 37° C. and 5% CO2.
For compound screening, the cells were harvested (as described above) and counted. 13×10^6 cells were spun down, the supernatant was aspirated and the cells were re-suspended in 17.3 mL of assay medium obtaining a cell suspension of 0.75×10^6 cells/mL. 80 μL of cell suspension (60,000 cells) was plated per well into a white, flat bottom, tissue culture treated, 96 well screening plates (Greiner).
Test compounds were diluted, starting from a 10 mM dimethylsulfoxide (DMSO) stock solution, to serial dilutions in DMSO at 500× the final test concentration. Subsequently, these solutions were diluted to 5× the final test concentration in two 10-fold-dilution steps in assay medium. The final DMSO concentration of the 5× test compound solution was 1%. […]

Each structure is given as a SMILES string. Where only a bound is given, the exact number is not on record here.

Consider `CCN(C(=O)c1ccc(NC(=O)Cc2ccc(S(=O)(=O)CC3CC3)cc2)cc1)c1cccc(C)c1` [Example 31, 4-[2-(4-cyclopropylmethanesulfonylphenyl)acetamido]-N-ethyl-N-(3-methylphenyl)benzamide], for which the IC50 was at most 10 nM.

Regarding `CCOC(=O)CN(Cc1ccccc1)C(=O)c1ccc(NC(=O)Cc2ccc(S(=O)(=O)CC3CC3)cc2)cc1` [Example 32, ethyl 2-(N-benzyl-1-{4-[2-(4-cyclopropylmethanesulfonylphenyl)acetamido]phenyl}formamido)acetate], the IC50 is at most 10 nM.

In the case of `CCOC(=O)c1cc2c(s1)CN(C(=O)c1ccc(NC(=O)Cc3ccc(S(=O)(=O)CC4CC4)cc3)cc1)CC2` [Example 33, ethyl 6-{4-[2-(4-cyclopropylmethanesulfonylphenyl)acetamido]benzoyl}-4H,5H,6H,7H-thieno[2,3-c]pyridine-2-carboxylate], the IC50 was at most 1000 nM.

As for `CN(C(=O)c1ccc(NC(=O)Cc2ccc(S(=O)(=O)CC3CC3)cc2)cc1)C1CCCCC1` [Example 34, N-cyclohexyl-4-[2-(4-cyclopropylmethanesulfonylphenyl)acetamido]-N-methylbenzamide], the IC50 was at most 1000 nM.

On to `O=C(Cc1ccc(S(=O)(=O)CC2CC2)cc1)Nc1ccc(C(=O)N2CCCC2c2ccccc2)cc1` (stereo not shown) [Example 35, 2-(4-cyclopropylmethanesulfonylphenyl)-N-[4-(2-phenylpyrrolidine-1-carbonyl)phenyl]acetamide], for which the IC50 is at most 100 nM.

With `O=C(Cc1ccc(S(=O)(=O)CC2CC2)cc1)Nc1ccc(C(=O)N2CCCCC2)cc1` [Example 36, 2-(4-cyclopropylmethanesulfonylphenyl)-N-[4-(piperidine-1-carbonyl)phenyl]acetamide], the IC50 is at most 1000 nM.

Turning to `CC(C)CN(C(=O)c1ccc(NC(=O)Cc2ccc(S(=O)(=O)CC3CC3)cc2)cc1)c1ccccc1` [Example 37, 4-[2-(4-cyclopropylmethanesulfonylphenyl)acetamido]-N-(2-methylpropyl)-N-phenylbenzamide], the IC50 was at most 10 nM.

`CCOC(=O)c1csc(C2CCCN2C(=O)c2ccc(NC(=O)Cc3ccc(S(=O)(=O)CC4CC4)cc3)cc2)n1` (stereo not shown) [Example 38, ethyl 2-(1-{4-[2-(4-cyclopropylmethanesulfonylphenyl)acetamido]benzoyl}pyrrolidin-2-yl)-1,3-thiazole-4-carboxylate]: the IC50 was at most 1000 nM.

For the compound `O=C(Cc1ccc(S(=O)(=O)CC2CC2)cc1)Nc1ccc(C(=O)N2CCCCC2CN2CCOCC2)cc1` (stereo not shown) [Example 39, 2-(4-cyclopropylmethanesulfonylphenyl)-N-{4-[2-(morpholin-4-ylmethyl)piperidine-1-carbonyl]phenyl}acetamide], the IC50 is at most 1000 nM.

Consider `O=C(Cc1ccc(S(=O)(=O)CC2CC2)cc1)Nc1ccc(C(=O)N2CCCc3ccccc32)cc1` [Example 40, 2-(4-cyclopropylmethanesulfonylphenyl)-N-[4-(1,2,3,4-tetrahydroquinoline-1-carbonyl)phenyl]acetamide], for which the IC50 is at most 10 nM.

As to `O=C(Cc1ccc(S(=O)(=O)CC2CC2)cc1)Nc1ccc(C(=O)N2CCc3ccccc32)cc1` [Example 41, 2-(4-cyclopropylmethanesulfonylphenyl)-N-[4-(2,3-dihydro-1H-indole-1-carbonyl)phenyl]acetamide], the IC50 is at most 1000 nM.

As for `CCN(Cc1ccccc1)C(=O)c1ccc(NC(=O)Cc2ccc(S(=O)(=O)CC3CC3)cc2)cc1` [Example 42, N-benzyl-4-[2-(4-cyclopropylmethanesulfonylphenyl)acetamido]-N-ethylbenzamide], the IC50 was at most 100 nM.

For the compound `CCN(C(=O)c1ccc(NC(=O)Cc2ccc(S(=O)(=O)NC3CC3)cc2)cc1)c1ccccc1` [Example 43, 4-{2-[4-(cyclopropylsulfamoyl)phenyl]acetamido}-N-ethyl-N-phenylbenzamide], the IC50 was at most 10 nM.

As to `CN(C(=O)c1ccc(NC(=O)Cc2ccc(S(=O)(=O)NC3CC3)cc2)cc1)c1ccccc1` [Example 44, 4-{2-[4-(cyclopropylsulfamoyl)phenyl]acetamido}-N-methyl-N-phenylbenzamide], the IC50 was at most 100 nM.

With `CCN(C(=O)c1ccc(NC(=O)Cc2ccc(S(=O)(=O)NC3CC3)cc2)cc1)c1cccc(C)c1` [Example 46, 4-{2-[4-(cyclopropylsulfamoyl)phenyl]acetamido}-N-ethyl-N-(3-methylphenyl) benzamide], the IC50 was at most 10 nM.

Turning to `CCN(C(=O)c1ccc(NC(=O)Cc2ccc(S(=O)(=O)NC3CC3)cc2)cc1)c1cccc(C(=O)OC)c1` [Example 47, methyl 3-(N-ethyl-4-{2-[4-(cyclopropylsulfamoyl)phenyl]acetamido}benzamido) benzoate], the IC50 is at most 100 nM.

For the compound `O=C(Cc1ccc(S(=O)(=O)CC2CC2)cc1)Nc1ccc(C(=O)N2CCCC(c3ccccc3)C2)cc1` (stereo not shown) [Example 48, 2-(4-cyclopropylmethanesulfonylphenyl)-N-[4-(3-phenylpiperidine-1-carbonyl)phenyl]acetamide], the IC50 was at most 100 nM.

For the compound `O=C(Cc1ccc(S(=O)(=O)CC2CC2)cc1)Nc1ccc(C(=O)N2CCCCC2c2ccccc2)cc1` (stereo not shown) [Example 49, 2-(4-cyclopropylmethanesulfonylphenyl)-N-[4-(2-phenylpiperidine-1-carbonyl)phenyl]acetamide], the IC50 is at most 10 nM.

In the case of `CCN(C(=O)c1ccc(NC(=O)Cc2ccc(S(=O)(=O)NC3CC3)cc2)cc1)c1cccnc1` [Example 50, 4-{2-[4-(cyclopropylsulfamoyl)phenyl]acetamido}-N-ethyl-N-(pyridin-3-yl)benzamide], the IC50 is at most 1000 nM.

Turning to `CCN(C(=O)c1ccc(NC(=O)Cc2ccc(S(=O)(=O)CC3CC3)cc2)nc1)c1ccccc1` [Example 51, 6-[2-(4-cyclopropylmethanesulfonylphenyl)acetamido]-N-ethyl-N-phenylpyridine-3-carboxamide], the IC50 is at most 100 nM.

As to `CCN(C(=O)c1ccc(NC(=O)Cc2ccc(S(=O)(=O)CC3CC3)cc2)cc1)c1cccnc1` [Example 52, 4-[2-(4-cyclopropylmethanesulfonylphenyl)acetamido]-N-ethyl-N-(pyridin-3-yl) benzamide], the IC50 is at most 100 nM.

On to `CCN(C(=O)c1ccc(NC(=O)Cc2ccc(S(=O)(=O)CC3CC3)cc2)c(Cl)c1)c1ccccc1` [Example 53, 3-chloro-4-[2-(4-cyclopropylmethanesulfonylphenyl)acetamido]-N-ethyl-N-phenylbenzamide], for which the IC50 was at most 100 nM.

As to `CCN(C(=O)c1ccc(NC(=O)Cc2ccc(S(=O)(=O)NC3CC3)cc2)nc1)c1ccccc1` [Example 54, 6-{2-[4-(cyclopropylsulfamoyl)phenyl]acetamido}-N-ethyl-N-phenylpyridine-3-carboxamide], the IC50 was at most 1000 nM.

For `O=C(Cc1ccc(S(=O)(=O)CC2CC2)cc1)Nc1ccc(C(=O)N2CCc3ccccc3C2)cc1` [Example 55, 2-(4-cyclopropylmethanesulfonylphenyl)-N-[4-(1,2,3,4-tetrahydroisoquinoline-2-carbonyl)phenyl]acetamide], the IC50 was at most 100 nM.

As to `CCN(Cc1cc(C)on1)C(=O)c1ccc(NC(=O)Cc2ccc(S(=O)(=O)CC3CC3)cc2)cc1` [Example 56, 4-[2-(4-cyclopropylmethanesulfonylphenyl)acetamido]-N-ethyl-N-[(5-methyl-1,2-oxazol-3-yl)methyl]benzamide], the IC50 is at most 100 nM.

(Values after US10315996B2, “ROR gamma (RORγ) modulators” (LEAD PHARMA HOLDING B.V., priority 2015, dated 2019).)
